Test results reported in patent publication US4973587A, “3-arylcarbonyl-1-aminoalkyl-1H-indole-containing antiglaucoma method” (Sterling Drug Inc., priority 1990, dated 1990).

test system: mouse vas deferens; test: mouse vas deferens test (MVD); assay type: cell-based; conditions: Mus musculus, inhibition of contractions in mouse vas deferens preparation in vitro; active at 5.0 μM or less
From the text: (§1) Med. Assoc. 217, 1392 (1971)]. […] Opth 7, 921-923 (1975); Green and Pederson, Effect of delta-9 Tetrahydrocannabinol on Aqueous Dynamics and Ciliary Body Permeability in the Rabbit Eye., Exptl. Eye Research 15, 499-507 (1973); Colasanti, Craig and Allara, Intraocular Pressure, Ocular Toxicity and Neurotoxicity after Administration of Cannabinol or Cannibigerol, Exptl. Eye Research 39, 252-259 (1984)]. Similarly, synthetic cannabinoids also reduce intraocular pressure [Green, Symunds, Oliver and Elijah, Intraocular Pressure Following Systemic Administration of Cannabinoids, Curr. Eye Research 2, 247-253 (1982); Tiedeman, Shields, Weber, Crow, Coccetto, Harris and Howes, Ophthalmology., 88, 270-277 (1981); Colasanti et al., supra]. Cannabinoid receptor binding sites can be defined as those to which radio-labelled 4-(1,1-dimethylheptyl)-2,3'-dihydroxy-6'alpha-(3-hydroxypropyl)-1',2',3',4',5',6'-hexahydrobiphenyl (CP 55940) binds in a specific and saturable manner, and the binding sites are heterogeneously distributed in the brain [Devane, Dysarz, Johnson, Melvin and Howlett, Determination and Characterization of a Cannabinoid Receptor in Rat Brain, Molecular Pharm. 34, 605-613 (1988)]. Natural and synthetic cannabinoids and representative examples of the compounds of the present invention bind to CP 55940 binding sites. […] It is believed that agonist activity at the cannabinoid receptor mediates the anti-glaucoma actions of cannabinoids, and that agonist activity at this receptor correlates with ocular pressure lowering actions in man.

Cc1c(C(=O)c2csc3ccccc23)c2ccccc2n1CCN1CCOCC1 [Example 1Q] and Cc1c(C(=O)c2cccc3ccccc23)c2ccccc2n1CCN1CCOCC1 [Example 1AP] are within 1.5-fold of each other in IC50: 18 nM for the first, 15 nM for the second.

Compared with COc1ccc(C(=O)c2c(C)n(CCN3CCOCC3)c3ccccc23)c(OC)c1OC [Example 1CA], COc1cccc(C(=O)c2c(C)n(CCN3CCOCC3)c3ccccc23)c1 [Example 1AA] is 2.9-fold higher in IC50: 70 nM for the first, 200 nM for the second.

First: COc1ccc(C(=O)c2cn(CCN3CCOCC3)c3ccccc23)cc1 [Example 1A, 3-(4-methoxybenzoyl)-1-[2-(4-morpholinyl)ethyl]1H-indole methanesulfonate monohydrate]
Second: O=C(c1ccc2ccccc2c1)c1cn(CCN2CCOCC2)c2ccccc12 [Example 2CJ]
The IC50 of the first is 3.2-fold higher: 100 nM for the first, 31 nM for the second.

Cc1c(C(=O)c2cccc3ccccc23)c2ccccc2n1CCN1CCCC(O)C1 (stereo not drawn) [Example 3D] and Cc1c(C(=O)c2cccc3ccccc23)c2ccccc2n1CCN1CCOC(C)C1 (stereo not drawn) [Example 3E] are within 1.5-fold of each other in IC50: 236 nM for the first, 210 nM for the second.

Compared with CCN(CC)CCCn1c(C)c(C(=O)c2ccc(OC)cc2)c2ccccc21 [Example 3J], COc1ccc(C(=O)c2c(C)n(CCCN3CCOCC3)c3ccccc23)cc1 [Example 1H] is lower in IC50: > 10000 nM for the first, 360 nM for the second. The second is the more potent here.

Compared with Cc1c(C(=O)c2ccc3ncccc3c2)c2ccccc2n1CCN1CCOCC1 [Example 2AZ], Cc1c(C(=O)c2cnc3ccccc3c2)c2ccccc2n1CCN1CCOCC1 [Example 2BC] is 5.6-fold higher in IC50: 102 nM for the first, 570 nM for the second.

Going from CC(Cn1cc(C(=O)c2cccc3ccccc23)c2ccccc21)N1CCOCC1 (stereo not drawn) [Example 1BX] to O=C(c1cccc2ccccc12)c1cn(CCN2CCOCC2)c2ccccc12 [Example 2Z], the IC50 falls from 60 nM to 6 nM (10-fold). The second is the more potent here.

Cc1c(C(=O)c2ccnc3ccccc23)c2ccccc2n1CCN1CCOCC1 [Example 2BE] and Cc1c(C(=O)c2cccc3ccccc23)c2ccccc2n1CCCN1CCOCC1 [Example 1BU] are within 1.5-fold of each other in IC50: 115 nM for the first, 111 nM for the second.

Compared with Cc1c(C(=O)C=Cc2cccc3ccccc23)c2ccccc2n1CCN1CCOCC1 [Example 2BO], Cc1c(C(=O)c2ccc3ccccc3c2)c2ccccc2n1CCN1CCOCC1 [Example 1S] is 2.6-fold lower in IC50: 130 nM for the first, 50 nM for the second. The second is the more potent here.

Going from Cc1c(C(=O)c2ccc3c(c2)OCO3)c2ccccc2n1CCN1CCOCC1 [Example 1-O] to Cc1c(C(=O)c2ccc3occc3c2)c2ccccc2n1CCN1CCOCC1 [Example 2AA], the IC50 falls from 1300 nM to 125 nM (10-fold).

Going from Cc1c(C(=O)c2cc3ccccc3c3ccccc23)c2ccccc2n1CCN1CCOCC1 [Example 1CG] to Cc1c(C(=O)c2cccc3cc4ccccc4cc23)c2ccccc2n1CCN1CCOCC1 [Example 1CF], the IC50 falls from 170 nM to 60 nM (2.8-fold).

Cc1c(C(=O)c2ccccc2)c2ccccc2n1CCN1CCOCC1 [Example 1AE] and Cc1c(C(=O)c2cccc(N)c2)c2ccccc2n1CCN1CCOCC1 [Example 4A, 2-methyl-3-(3-aminobenzoyl)-1-[2 (4-morpholinyl)ethyl]-1H-indole] are the same in IC50: 700 nM for the first, 700 nM for the second.

First: Cc1ccc2c(C(=O)c3cccc4ccccc34)cn(CCN3CCOCC3)c2c1 [Example 2AY]
Second: O=C(c1ccc(Br)c2ccccc12)c1cn(CCN2CCOCC2)c2ccccc12 [Example 2AW]
The IC50 of the first is 2.5-fold lower: 2 nM for the first, 5 nM for the second. The first is the more potent here.

Going from Cc1cc(C)cc(C(=O)c2c(C)n(CCN3CCOCC3)c3ccccc23)c1 [Example 2AJ] to Cc1c(C(=O)c2ccc(Br)cc2)c2ccccc2n1CCN1CCOCC1 [Example 2AR], the IC50 rises from 390 nM to 620 nM (1.6-fold).

Going from COc1ccc(C(=O)c2c(C)n(CCN3CCCC(O)C3)c3ccccc23)cc1 (stereo not drawn) [Example 3B] to COCc1ccc(C(=O)c2c(C)n(CCN3CCOCC3)c3ccccc23)cc1 [Example 2BW], the IC50 falls from > 10000 nM to 900 nM. The second is the more potent here.

First: COc1ccc(C(=O)c2c(C)n(CCN3CCOCC3)c3ccc(F)cc23)cc1 [Example 1E]
Second: CCc1ccc(C(=O)c2c(C)n(CCN3CCOCC3)c3ccccc23)cc1 [Example 1X]
The IC50 of the first is 1.7-fold higher: 120 nM for the first, 71 nM for the second.

First: Cc1c(C(=O)c2ccccc2)c2ccccc2n1C(C)CN1CCOCC1 (stereo not drawn) [Example 1AK]
Second: CCC(CN1CCOCC1)n1c(C)c(C(=O)c2ccc3ccccc3c2)c2ccccc21 (stereo not drawn) [Example 2AV]
The IC50 of the first is 9.9-fold higher: 900 nM for the first, 91 nM for the second.

CSc1ccc(C(=O)c2c(C)n(CCN3CCOCC3)c3ccccc23)cc1 [Example 1C] showed an IC50 of 610 nM.

same assay, conditions: inhibition of contractions in mouse vas deferens preparation in vitro; active at 5.0 μM or less

Molecule COc1ccc(C(=O)c2c(C)n(CCN3CCOCC3)c3ccccc23)cc1 [Example 1B] has an IC50 of 500 nM.
Work on COc1ccc(C(=O)c2c(C)n(CCN3CCOCC3)c3ccccc23)cc1 [Example 1F] yielded an IC50 of 1400 nM.

target: T1, cannabinoid receptor (CP 55940 binding sites) (Rattus norvegicus, UniProt P20272); test: CP55490 binding assay (CP); conditions: CP55490 binding assay
T1 construct: from tissue
T1 sequence (P20272 whole entry): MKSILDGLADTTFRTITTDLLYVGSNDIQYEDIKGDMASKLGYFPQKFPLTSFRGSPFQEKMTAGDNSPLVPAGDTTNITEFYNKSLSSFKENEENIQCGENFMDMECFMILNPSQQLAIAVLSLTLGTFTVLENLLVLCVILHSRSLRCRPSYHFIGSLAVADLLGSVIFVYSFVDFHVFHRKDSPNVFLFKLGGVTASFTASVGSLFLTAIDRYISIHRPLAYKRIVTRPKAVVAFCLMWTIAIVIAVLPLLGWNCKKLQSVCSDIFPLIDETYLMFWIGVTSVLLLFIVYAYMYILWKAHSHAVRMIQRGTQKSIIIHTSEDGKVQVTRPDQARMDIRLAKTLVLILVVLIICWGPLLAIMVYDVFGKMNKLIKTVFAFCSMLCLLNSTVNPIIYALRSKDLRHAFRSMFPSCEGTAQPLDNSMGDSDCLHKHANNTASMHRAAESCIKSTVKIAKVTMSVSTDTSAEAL
From the text: as §1

Cc1c(C(=O)c2csc3ccccc23)c2ccccc2n1CCN1CCOCC1 [Example 1Q] and Cc1c(C(=O)c2cccc3ccccc23)c2ccccc2n1CCN1CCOCC1 [Example 1AP] are within 1.5-fold of each other in IC50: ~50 nM for the first, 51 nM for the second.

First: COc1ccc(C(=O)c2c(C)n(CCN3CCOCC3)c3ccccc23)cc1 [Example 1B]
Second: O=C(c1cccc2ccccc12)c1cn(CCN2CCOCC2)c2ccccc12 [Example 2Z]
The IC50 of the first is higher: 3000 to 10000 nM for the first, 88 nM for the second.

Work on Cc1c(C(=O)c2cccc3ccccc23)c2ccccc2n1CCN1CCCC(O)C1 (stereo not drawn) [Example 3D] yielded an IC50 of 200 to 500 nM.

same assay, conditions: at 1 μM; read-out: CP % I

Compared with COc1ccc(C(=O)c2c(C)n(CCN3CCOCC3)c3ccccc23)c(OC)c1OC [Example 1CA], COc1ccc(C(=O)c2cn(CCN3CCOCC3)c3ccccc23)cc1 [Example 1A, 3-(4-methoxybenzoyl)-1-[2-(4-morpholinyl)ethyl]1H-indole methanesulfonate monohydrate] is lower in inhibition at 1 µM: 70% for the first, 59% for the second.

test system: intraocular pressure; test: not given; conditions: topical application or systemic injection; cited from earlier work

For CCCCCc1cc(O)c2c(c1)OC(C)(C)[C@@H]1CCC(C)=C[C@@H]21 [delta-9 tetrahydrocannabinol], the intraocular pressure is listed as “reduces intraocular pressure”.
